Laboratory results reported in patent US12171821B2, “Toxoplasma gondii vaccine” (priority 2018, dated 2024).
Values joined by “and” are separate entries in the source; they are usually repeats but may differ in a detail not shown here. Identical values can stand only once. “Also recorded” adds a separate entry of the source.

What was measured:
[1] = test system: T. gondii ME49 bradyzoites; experiment: Real-time PCR on ileum cDNA of infected Z-DNA binding protein knock out mice; type: in vivo, Toxoplasma gondii; conditions: mice, linoleic acid and SC26196 50 mg/kg every 12 hours by oral gavage, seven days after infection
Description: (§1) Delta-6-desaturase inhibition. SC 26196 (Cayman) was solubilized in DMSO and used at 20 μM in mouse organoid monolayers. For in vivo treatment, the inhibitor was solubilized in 0.5% m/v methylcellulose and the mice were given 50 mg/kg every 12 hours by oral gavage (He et al., 2012). 4-week old C57BL/6J female mice deleted in Z-DNA-binding protein (Pittman et al., 2016) were divided into four different groups: uninfected control, T. gondii-infected without fatty acid supplementation, T. gondii infected with linoleic acid supplementation, and T. gondii-infected with linoleic acid and SC 26196 inhibitor. Each mouse supplemented with linoleic acid received 10 μL of 99% linoleic acid oil (MilliporaSigma Cat #843483) suspended in 0.5% Methylcellulose per day by oral gavage. Mice were infected with 1000 brain cysts purified as described above by oral gavage and euthanized 7 days post infection. Sample size was at least 2 mice per group and the experiment was repeated 5 times. Alternatively, each mouse was infected with one mouse brain at least 2 months postinfection with at least 1000 cysts. Mice were treated with SC 26196 until day 5 postinfection. Feces were collected from days 5-14 and oocysts enumerated by microscopy.
(§2) Real-time PCR on ileum cDNA. Z-DNA binding protein deletion mice ice with and without delta-6-desaturase inhibitor treatment were euthanized 7 days post infection. The ileum of each mouse was removed and homogenized in 1 mL of TRIzol. Total RNA was isolated according to manufacturer's protocol (Invitrogen) and treated with amplification grade Dnase I. cDNA was generated using the Invitrogen SuperScript III First-Strand Synthesis kit with random hexamer primers. GRA11B and SAG1 were used as markers of sexual and asexual stages, respectively. The T. gondii housekeeping gene TUB1A was used to normalize target gene expression. Real-time quantitative PCR was performed using Bio-Rad iTaq Universal SYBR Green Supermix on 311 an Applied Biosystems StepOnePlus Real-Time PCR system. The efficiency of each primer set was calculated from the slope of a 1:10 dilution standard curve of tachyzoite gDNA, where E=10^(−1/slope). The Pfaffl method (Pfaffl, 2001), which accounts for differences in efficiencies, was then used to calculate the relative gene expression of GRA11B and SAG1 per sample, in triplicate. Only wells with one melt curve temperature were used, indicating a single product. Primer sequences were as follows:
Statistical methods. All real-time PCR fecal samples were run in triplicate technical replicates. The difference between the mean target gene copy numbers was analyzed by two-tailed unpaired t tests. The real-time PCR intestinal samples were run in triplicate from two biological replicates per group. The difference between the mean relative expression of each target gene was analyzed by two-tailed unpaired t tests.

T. gondii [2] = experiment: Real-time PCR (SAG1) on gDNA of mouse fecal samples; type: in vivo, Toxoplasma gondii; conditions: mice fed linoleic acid, with or without SC26196
Description: as §1
Real-time PCR on fecal samples. […] A standard curve was generated using a dilution series of 101-105 parasites per well amplified using the SAG1 primer set described above, based on a gDNA sample with known parasite quantity. […]
[formula] […] The calculated copy numbers of each sample were normalized based on the ng of nucleic acid used as PCR template. […]
Statistical methods. […] The difference between the mean target gene copy numbers was analyzed by two-tailed unpaired t tests. […] The difference between the mean relative expression of each target gene was analyzed by two-tailed unpaired t tests.

T. gondii [3] = experiment: Oocyst counts in mouse feces by microscopy; type: in vivo, Toxoplasma gondii; conditions: mice, inhibitor every 12 hours for the 7 days of infection
Description: as §1

murine organoids = experiment: Monolayer formation of murine organoids with delta 6-desaturase inhibitor; type: cell-based, mouse; conditions: about 2 μM to 200 μM, medium with about 200 μM linoleic acid
[4] = whole animal experiments (He et al., 2012); cited from earlier work
[5] = test system: T. gondii ME49 bradyzoites; experiment: Merozoite markers GRA11B/BRP1, immunofluorescence, infected cat intestinal monolayers; type: cell-based, Toxoplasma gondii; conditions: 200 μM fatty acid, 5 days of infection
Description: FIGS. 6A-B. Quantification of merozoites in cat tissue culture. A) Cat intestinal organoids were disassociated by trypsin then grown as monolayers on glass slides. Slides were divided into three different groups: not supplemented with fatty acid, supplemented with 200 μM oleic acid or supplemented 200 μM linoleic acid. Monolayers were infected with T. gondii MEM bradyzoites purified from brains of chronic infected mice at a 1:10 MOI. Five days after infection, staining for GRA11B and BRP1 along with DAPI, allowed the percentage of vacuoles positive for GRA11B and BRP1out of the total vacuoles was determined. Total number of parasitophorous vacuoles were counted by positive DAPI staining and confirmed by morphology with DIC. At least 50 parasitophorous vacuoles were counted per replicate. Three biological replicates were counted and on average 35% of the total vacuoles were positive far both GRA11B and BRP1 in the linoleic acid supplemented monolayers. *p-value=0.0126 with N=3 by two-tailed unpaired t test. Straining for both BRP1 and GRA11B was used to ensure that merozoite stages were counted. […] BRP1 is a rhoptry protein that was initially found in bradyzoites; however, it is also expressed in merozoite. […]

[6] = test system: T. gondii ME49 bradyzoites; experiment: qPCR of SAG1, GRA11B, TUB1A on cDNA of infected cat intestinal monolayers; type: cell-based, Toxoplasma gondii; conditions: cat intestinal monolayers cDNA
Description: FIGS. 6A-B. Quantification of merozoites in cat tissue culture. A) Cat intestinal organoids were disassociated by trypsin then grown as monolayers on glass slides. Slides were divided into three different groups: not supplemented with fatty acid, supplemented with 200 μM oleic acid or supplemented 200 μM linoleic acid. Monolayers were infected with T. gondii MEM bradyzoites purified from brains of chronic infected mice at a 1:10 MOI. Five days after infection, staining for GRA11B and BRP1 along with DAPI, allowed the percentage of vacuoles positive for GRA11B and BRP1out of the total vacuoles was determined. Total number of parasitophorous vacuoles were counted by positive DAPI staining and confirmed by morphology with DIC. At least 50 parasitophorous vacuoles were counted per replicate. Three biological replicates were counted and on average 35% of the total vacuoles were positive far both GRA11B and BRP1 in the linoleic acid supplemented monolayers. *p-value=0.0126 with N=3 by two-tailed unpaired t test. Straining for both BRP1 and GRA11B was used to ensure that merozoite stages were counted. […] BRP1 is a rhoptry protein that was initially found in bradyzoites; however, it is also expressed in merozoite. B) Cat intestinal monolayers were grown as described in panel A, except monolayers were quenched by TRIzol 5 days post-infection, RNA was extracted, and cDNA was synthesized using an oligo (dT) primer to amplify mRNA, Expression of SAG1 and GRA11B were quantified by qPCR and the fold change calculated in comparison with uninfected cells. TUB1A was used to normalize gene expression across samples.
as §2, with “follows: […]” for “follows:”

[7] = test system: T. gondii ME49 bradyzoites; experiment: Gametes and intracellular oocyst walls (AO2, 3G4, PCR) in infected cat intestinal monolayers; type: cell-based, Toxoplasma gondii; conditions: cultured cat cells, 200 μM fatty acid, 7 days of infection
Description: FIGS. 7A-H. Identification of gametes and intracellular oocysts in cat tissue culture. Cat intestinal organoids were disassociated by trypsin then grown as monolayers on glass slides. […] After 7 days, monolayers were incubated with mouse anti-AO2 (panels A-C) or mouse monoclonal IgM 3G4 (panels E-G), The amiloride-sensitive amine oxidase, copper-containing protein 2 (AO2) is an enzyme exclusively expressed in macrogametes and early oocysts and has a possible role in oocyst wall biogenesis. […] 3G4 is a mouse monoclonal antibody produced by immunizing mice with purified oocyst walls, thus it is a marker of oocyst wall biogenesis. Only monolayers supplemented with linoleic acid (G) had positive 3G4 vacuoles. All panels are 20 μm square with a 5 μm white size bar in the lower right corner. D) Markers for macrogamete and microgamete expression were also evaluated by PCR. Cat intestinal monolayers were grown in 24-well plates until confluency and then infected with T. gondii bradyzoites in duplicate using the same conditions as above. 7 days post-infection, RNA was extracted with TRIzol and cDNA was synthesized using an oligo (dT) primer to only amplify mRNA. AO2 was again used as a marker for macrogametes and the expected PCR product is 218 bp. To assess microgamete presence, we selected the gene TgME49_306338, which is overexpressed in the gametes stage, corresponded to day 7 post-infection in cats and has 44% identity to a protein expressed in the flagella of the motile green algae Chlamydomonas reinhardtii. The expected PCR product for TgME49_306338 is 160 bp. TUB1A was used as an input control and results in a 172 bp product. NO RT corresponds to a cDNA synthesis reaction without the addition of reverse transcriptase (RI) as a control for genomic DNA contamination. Equivalent amounts of cDNA per sample were used as a template for each PCR reaction, and the products were separated on an acrylamide gel. […] H) The number of positive oocyst walls stained with 3G4 were quantified. […] The number of positive oocyst walls were counted in each slide and divided by the area of slide in cm^2.
Immunofluorescence. Intestinal organoid monolayers or mouse fecal samples were fixed in 3.7% formaldehyde in PBS for 20 minutes, permeabilized with 0.2% triton X-100 (Sigma) in PBS at room temperature for one hour and then blocked with 3% BSA in PBS at room temperature for one hour. Primary antibody was incubated at 4° C. overnight in 0.2% v/v Triton x-100 and 3% BSA in PBS (1:100 mouse anti-GRA11B, 1:100 rabbit anti-BRP1, 1:100 mouse anti-AO2, 1:50 monoclonal mouse anti-ZO1 (Santa Cruz) or 1:25 mouse 288 IgM anti-oocyst wall 3G4. Sporulated oocysts from mouse feces were dried onto slides, fixed and permeabilized with ice cold acetone for 30 minutes and incubated with 1:20 mouse 4B6 to the visualize the sporocyst. Slides were incubated one hour with the specific secondary antibody (1:500 goat anti-rabbit Alexa Fluor 488 and 1:500 goat anti-mouse Alexa Fluor 594) at room temperature for one hour and then washed 3 times with PBS. Cells nuclei were stained with 10 μM DAPI (Sigma). Slides were mounted in Vectashield antifade mounting medium (VectorLabs). Samples were imaged on Zeiss Axioplan III equipped with a triple-pass (DAPI/fluorescein isothiocyanate [FITC]/Texas Red) emission cube, differential interference contrast optics, and a monochromatic Axiocam camera operated by Zen software (Zeiss) and processed using ImageJ (Fiji packet).
PCR of cat intestinal monolayers. […]

[8] = biological replicates 1 and 2, wells 1-3

SMILES: N#CC(CCCN1CCN(/N=C/c2cccnc2)CC1)(c1ccccc1)c1ccccc1 [SC26196]
- expression of merozoite marker GRA11B, qPCR of ileum cDNA [1]: significantly up regulated only in the presence of SC26196
- T. gondii genomic DNA in mouse fecal samples (qPCR, SAG1 primers) (T. gondii [2]): detectable only in mice treated with SC26196; also recorded: detected only in mice treated with SC26196
- oocysts produced (T. gondii [3]): 1000-10,000 oocysts/gram dry feces
- monolayer formation (murine organoids): did not inhibit monolayer formation
- anti-inflammatory effect [4]: effective as an anti-inflammatory agent

SMILES: CCCCCCCC/C=C\CCCCCCCC(=O)O [oleic acid]
- parasites undergoing sexual development / merozoite stage markers GRA11B and BRP1 (staining) [5]: not
- GRA11B Ct mean ([6]; biological replicates 1 and 2): 32.53 and 31.82
- SAG1 Ct mean ([6]; biological replicates 1 and 2): 20.83 and 19.56
- GRA11B raw Ct values [6, 8]: 32.44 and 31.77 (2×) and 32.73 and 31.91 and 32.43
- SAG1 raw Ct values [6, 8]: 20.87 and 19.66 and 20.88 and 19.54 and 20.75 and 19.46
- number of positive oocyst walls stained with 3G4 [7]: none
